Here are results for two compounds from paper PMC8391104, “Molecular mechanism of Mad1 kinetochore targeting by phosphorylated Bub1” (EMBO Reports, 2021).

Where two headings read alike, the source gives them in different places. Where a SMILES comes first, the peptide text is derived from it. [ ]: non-standard residue; d: D form. pT = C[C@@H](OP(=O)(O)O)[C@H](N)C(=O)O

One data set has as its system Mad1^CTD. The conditions noted are these: ref Ji et al, 2017b, Zhang et al, cited from earlier work. The text has this:
Formation of the Bub1‐Mad1 complex at kinetochores is dependent on phosphorylation of Bub1, a targeting mechanism conserved from yeast to humans (Heinrich et al, [2014]; London & Biggins, [2014a]; Silió et al, [2015]). In S. cerevisiae, phosphorylation of Bub1 at Thr453 and Thr455 by Mps1 promotes an interaction with Mad1^CTD, with pThr455 alone being sufficient for this interaction (London & Biggins, [2014a]; Ji et al, [2017b]). […] This is explained by our structure because a bulky phosphate at Thr464 would clash with the Bub1^CD1 binding interface of Mad1. Therefore, phosphorylation at Thr464 could provide a means to negatively regulate the Bub1‐Mad1 interaction in response to checkpoint signals ... || (+ 1 further places)

The next data set can be described thus: Peptide solubility. Type of data set: physicochemical. The conditions noted are these: 20 mM Hepes, pH 7.5, 100 mM NaCl, 1 mM TCEP, without DMSO. The method, then:
Our ITC and sedimentation equilibrium experiments to measure the stoichiometry of the Mad1^CTD‐Bub1^CD1 interaction were performed with concentrations of Mad1 at 100 µM or lower, and titrating Bub1 until a twofold‐fourfold molar excess was obtained. However, our ^31P NMR experiments were conducted with around 0.25 to 0.5 mM of each, and still only one binding event was detected. […] DMSO interfered with ITC enthalpy changes and the NMR signal from DMSO obscured the protein peaks. In contrast, our Mad1^CTD‐Bub1^CD1 crystal structure was obtained through co‐crystallization of Mad1^CTD at a final concentration of 0.35 mM and Bub1^CD1 at 2.5 mM in 5% DMSO. The use of millimolar concentrations of peptide, and the presence of DMSO and isopropanol, required for Mad1^CTD‐Bub1^CD1 crystallization, may explain the association of a second peptide in the crystallized complex. […]
which are affected are already mapped out in Fig 5B, and this can be tracked across Bub1CD1 […]
We thank the reviewer for their positive and constructive comments.
1) On page 2, the first line of the third paragraph, Msp1 should be Mps1.
Response: Thank you, we have corrected this error.
2) Please provide a figure to show the omit map (2Fo−Fc map) for the BUB1 CD1 peptide.
Response: We have created a 2Fo-Fc omit map and included it in Fig EV2D and updated the figure legend accordingly. […]
2) p. 5, near bottom. The authors state that the singly phosphorylated Bub1 peptide (on Thr-461) is less soluble than the double phosphorylated peptide (also phosphorylated on Ser-459), which may explain previous reports that P-Ser-459 contributes to binding Mad1-CTD. It would be helpful if the authors could quantify this reduced solubility.
Response: We realise that our comment on the reduced solubility of the singly phosphorylated pT461 peptide is likely confusing, so we have removed this comment.
In terms of quantifying the reduced solubility, we observed an approximately 2-fold reduction of the solubility of the singly phosphorylated peptide. […]

The next data set concerns Mad1CTD. Put plainly: Mad1-Cdc20 interaction. Type of data set: binding. The text has this: Response: Thank you for pointing out this paper. We have now mentioned this observation in the text: bottom of page 10.
2-1) Have the authors analyzed if Mad1 can bind directly to Cdc20 and is this influenced by Bub1 CD1 as proposed in Ji et al 2017? This would have important implications for understanding SAC signaling also in light of the two recent Science papers on this topic.
Response: We have not carefully analysed the Mad1-Cdc20 interaction. We have replicated […]
blotting) to Mad1CTD (data not shown).
2-2) The authors are focused on the model that Bub1 positions Cdc20 close to Mad1 but this model is not consistently supported by the literature (see for example: Di Fiore Dev Cell 2016 where a Cdc20 mutant unable to bind ABBA motifs still loads Mad2 and Zhang et al 2019, PMID: 30782962 where Bub1 without an ABBA motif still supports a robust […]
Response: Thank you for pointing this out. We agree that we predominately focused on the model that the Bub1 ABBA/KEN motifs position Cdc20 close to Mad1, and that we should have stated more clearly that this model is still debated.
Two changes to the text were made:
1) In the Introduction (page 2) where we had previously already discussed how this model is debated, we added the (Zhang et al, 2019) reference. […]
4) In figure 5A could the authors indicates the peaks they want the readers to focus on that are also discussed in the text. […]

As to `CC[C@H](C)[C@H](NC(=O)[C@H](Cc1ccccc1)NC(=O)CNC(=O)[C@H](CC(C)C)NC(=O)[C@H](C)NC(=O)[C@H](CCC(=O)O)NC(=O)[C@H](CCCCN)NC(=O)[C@@H](NC(=O)[C@H](Cc1c[nH]cn1)NC(=O)[C@@H](NC(=O)[C@@H](NC(=O)[C@@H]1CCCN1C(=O)[C@H](CO)NC(=O)[C@@H]1CCCN1C(=O)[C@H](CCC(N)=O)NC(=O)[C@@H](NC(=O)[C@@H](N)CCCCN)C(C)C)[C@@H](C)OP(=O)(O)O)C(C)C)[C@@H](C)O)C(=O)N[C@@H](CCSC)C(=O)N[C@@H](CC(N)=O)C(=O)N[C@@H](CCSC)C(=O)N[C@@H](Cc1ccccc1)C(=O)N[C@@H](CCC(N)=O)C(=O)N[C@@H](C)C(=O)N1CCC[C@H]1C(=O)N[C@H](C(=O)N[C@@H](CO)C(=O)O)[C@@H](C)O` [SpT* CD1] (H-KVQPSP[pT]VHTKEALGFIMNMFQAPTS-OH; N-terminus and C-terminus assumed), the “Mad1 binding reported previously, in words” value is recorded as “sufficient to promote a strong Bub1‐Mad1 interaction” in the data set on Mad1^CTD (listed as pThr461) and “significant reduction in binding” with Mad1^CTD (listed as singly phosphorylated pThr461 peptide). Further, the “reduction of solubility versus doubly phosphorylated peptide” value in the data set “Peptide solubility” was “approximately 2 fold”. Besides, the solubility result in the data set “Peptide solubility” is on record as “about 0.7 mM”.
For the compound “phosphorylated Bub1-Bub3: phosphorylated Bub1-Bub3 complex”, the “effect on the Mad1-Cdc20 interaction, in words” value in the data set with Mad1CTD is reported as “does not detectably enhance the Mad1-Cdc20 interaction”.
